Experiments:
[1] = tested on: HAP1 MTAP-deleted cell line; test: SDMA in-cell western assay, HAP1 MTAP-deleted; type: cell-based; conditions: for IC50: Homo sapiens, HAP1, SDMA in-cell western, HAP1 MTAP-deleted; for MTAP intact/deleted ratio: SDMA in-cell western
How it was run: (§1)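 Readout: in-cell western detection of SDMA. Cells: HAP1 expressing endogenous MTAP and an MTAP-null HAP1 counterpart. Output: IC50.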

[2] = target: T1, PRMT5 (Homo sapiens, UniProt O14744); test: PRMT5 biochemical IC50 assay with MTA as cofactor; conditions: PRMT5, MTA as cofactor; read-out: MTA IC50
T1 construct: purchased Viva (custom protein)
T1 sequence (O14744 whole entry): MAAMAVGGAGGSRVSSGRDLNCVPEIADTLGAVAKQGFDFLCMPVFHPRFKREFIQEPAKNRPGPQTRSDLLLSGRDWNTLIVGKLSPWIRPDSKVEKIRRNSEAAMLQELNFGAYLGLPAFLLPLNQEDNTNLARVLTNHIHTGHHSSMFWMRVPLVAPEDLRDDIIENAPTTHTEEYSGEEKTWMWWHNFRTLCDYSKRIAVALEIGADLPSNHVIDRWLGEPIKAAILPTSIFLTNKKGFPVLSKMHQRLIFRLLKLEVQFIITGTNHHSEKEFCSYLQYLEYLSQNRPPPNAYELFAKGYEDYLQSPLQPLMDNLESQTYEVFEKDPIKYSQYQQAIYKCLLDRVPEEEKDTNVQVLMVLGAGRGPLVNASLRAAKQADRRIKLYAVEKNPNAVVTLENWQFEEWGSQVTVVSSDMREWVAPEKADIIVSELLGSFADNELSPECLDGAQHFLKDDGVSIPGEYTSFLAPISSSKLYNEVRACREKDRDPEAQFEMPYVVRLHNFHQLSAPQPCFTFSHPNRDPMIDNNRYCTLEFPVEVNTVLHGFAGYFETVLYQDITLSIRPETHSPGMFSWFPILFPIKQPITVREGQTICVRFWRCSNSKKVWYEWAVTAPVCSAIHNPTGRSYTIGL
T1 sequence (Q9BQA1 whole entry partner): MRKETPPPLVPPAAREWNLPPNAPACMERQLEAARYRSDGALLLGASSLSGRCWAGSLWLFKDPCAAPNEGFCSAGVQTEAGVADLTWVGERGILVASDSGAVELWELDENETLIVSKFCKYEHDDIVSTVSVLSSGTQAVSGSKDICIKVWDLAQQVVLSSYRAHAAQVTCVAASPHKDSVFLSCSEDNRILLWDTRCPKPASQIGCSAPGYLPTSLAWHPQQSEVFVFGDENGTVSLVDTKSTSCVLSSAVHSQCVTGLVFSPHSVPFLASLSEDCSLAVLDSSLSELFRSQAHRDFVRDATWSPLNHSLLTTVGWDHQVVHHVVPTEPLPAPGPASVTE

[3] = tested on: HAP1 MTAP-deleted cell line; test: Viability assay, MTAP-deleted cell line; type: cell-based; conditions: read-out: HAP1 MTAP deleted viability
Text: Table 1 additionally indicates IC50 values in a viability assay for the MTAP-deleted cell line (column 10), indicating the effect of treatment with compound on cell survival.

[4] = target: T1, PRMT5; test: PRMT5 biochemical IC50 assay with SAM as cofactor; conditions: PRMT5, SAM as cofactor; read-out: SAM IC50
[5] = tested on: HAP1 MTAP-intact cell line; test: SDMA in-cell western assay, HAP1 MTAP-intact; type: cell-based; conditions: Homo sapiens, HAP1, SDMA in-cell western, HAP1 MTAP-intact; read-out: MTAP HAP1 intact IC50
How it was run: as §1

[6] = target: T1, PRMT5; test: PRMT5 biochemical IC50 assay with no cofactor; conditions: PRMT5, no cofactor
Text: Table 1 indicates IC50 values (μM) against PRMT5 for exemplary compounds in the presence of SAM as cofactor, with no cofactor, and with MTA as cofactor, respectively (columns 4-6). […] Ki values can be calculated from the IC50 values as described in the Examples section. As detailed in the Examples section, for the assay performed in the presence of SAM, IC50=Ki×1.5 (Ki=IC50/1.5).

[7] = read-out: HAP 1 MTAP deleted IC50
[8] = IC50 ratio HAP1 MTAP-intact / HAP1 MTAP-deleted
[9] = Homo sapiens, HAP1, viability assay, MTAP-deleted cell line
[10] = read-out: No Cofactor/ rel IC50
[11] = Homo sapiens, HAP1, viability, HAP1 MTAP-deleted cell line
[12] = read-out: HAP1 MTAP deleted IC50
[13] = Homo sapiens, HAP1, viability assay, HAP1 MTAP-deleted
[14] = IC50 ratio HAP1 MTAP-intact vs HAP1 MTAP-deleted

Compound | IC50 [1, 7] [nM] | IC50 [2] [nM] | IC50 [4] [nM] | IC50 [5] [nM] | IC50 [6, 10] [nM] | IC50 [1, 12] [nM] | IC50 ([6]; read-out: No Cofactor/rel IC50) [nM] | MTAP intact/deleted ratio [1, 8] | IC50 [3, 9] [µM] | IC50 [3, 11] [µM] | IC50 [3, 13] [µM] | MTAP intact/deleted ratio [1, 14] | IC50 ([3]; viability assay, MTAP-deleted cell line) [µM]
[2H]c1c([2H])c([C@@]2([2H])CC[C@H](C)CN2C(=O)C(=O)Nc2cncc(C(N)=O)c2)c([2H])c([2H])c1F (racemic) [Compound 1010, 5-(2-(2-(4-fluorophenyl-2,3,5,6-d4)-5-methylpiperidin-1-yl-2-d)-2-oxoacetamido)nicotinamide] | 100 to 1000 | 50 to 500 | 50 to 500 | > 1000 | – | – | 50 to 500 | A (an IC50 ratio greater than or equal to 10 fold) | 1 to 10 | – | – | – | –
CCc1cc(NC(=O)C(=O)N2C[C@H](C)CC[C@H]2c2ccc(C(=O)NC)s2)cnc1N (single isomer, unassigned) [Compound 835] | – | > 500 | > 500 | > 1000 | – | > 1000 | > 500 | C (an IC50 ratio of less than 3 fold) | – | – | > 10 | – | –
O=Cc1cncc(NC(=O)C(=O)N2CCCCC2c2ccccc2)c1 (stereo not drawn) [Compound 147, N-(5-formylpyridin-3-yl)-2-oxo-2-(2-phenylpiperidin-1-yl)acetamide] | > 1000 | 50 to 500 | > 500 | > 1000 | > 500 | – | – | C (an IC50 ratio of less than 3 fold) | > 10 | – | – | – | –
C[C@@H]1CC[C@@H](c2ccc(F)cc2)N(C(=O)C(=O)Nc2cnc(N)c(C(F)F)c2)C1 (racemic) [Compound 867, N-[6-amino-5-(difluoromethyl)-3-pyridyl]-2-[(2R,5S)-2-(4-fluorophenyl)-5-methyl-1-piperidyl]-2-oxo-acetamide] | – | 50 to 500 | 50 to 500 | > 1000 | – | 100 to 1000 | 50 to 500 | A (an IC50 ratio greater than or equal to 10 fold) | – | – | 1 to 10 | – | –
C[C@@H]1C[C@H](C)[C@@H](c2ccccc2)N(C(=O)C(=O)Nc2cncc(C(N)=O)c2)C1 (single isomer, unassigned) [Compound 311, 5-(2-(3,5-dimethyl-2-phenylpiperidin-1-yl)-2-oxoacetamido)nicotinamide] | – | < 50 | 50 to 500 | > 1000 | – | 100 to 1000 | 50 to 500 | A (an IC50 ratio greater than or equal to 10 fold) | > 10 | – | – | – | –
Cn1nccc1C1CCCCN1C(=O)C(=O)Nc1cncc(C(N)=O)c1 (single isomer, unassigned) [Compound 46] | 100 to 1000 | < 50 | 50 to 500 | > 1000 | 50 to 500 | – | – | A (an IC50 ratio greater than or equal to 10 fold) | – | – | – | – | > 10
Cc1cc(NC(=O)C(=O)N2C[C@@H](C)CC[C@@H]2c2ccn(-c3cc[nH]n3)n2)cnc1N (single isomer, unassigned) [Compound 789] | – | > 500 | > 500 | > 1000 | – | > 1000 | > 500 | B (an IC50 ratio greater than or equal to 3 fold but lower than 10 fold) | – | – | > 10 | – | –
Cc1cc(NC(=O)C(=O)N2C[C@@H](C)CC[C@@H]2c2ccc3snc(C)c3c2)cnc1N (single isomer, unassigned) [Compound 1166] | – | < 50 | 50 to 500 | < 100 | – | < 100 | < 50 | – | < 1 | – | – | B (an IC50 ratio greater than or equal to 3 fold but lower than 10 fold) | –
C[C@H]1CC[C@H](c2cccc(Cl)c2)N(C(=O)C(=O)Nc2cncc(C(N)=O)c2)C1 (single isomer, unassigned) [Compound 440] | – | < 50 | 50 to 500 | > 1000 | – | < 100 | 50 to 500 | A (an IC50 ratio greater than or equal to 10 fold) | 1 to 10 | – | – | – | –

Now from value to compound, other results behind:

IC50 [1, 7] [nM] | IC50 [2] [nM] | IC50 [4] [nM] | IC50 [5] [nM] | IC50 [6, 10] [nM] | IC50 [1, 12] [nM] | IC50 ([6]; read-out: No Cofactor/rel IC50) [nM] | Compound | MTAP intact/deleted ratio [1, 8] | IC50 [3, 9] [µM] | IC50 [3, 11] [µM] | IC50 [3, 13] [µM] | MTAP intact/deleted ratio [1, 14] | IC50 ([3]; viability assay, MTAP-deleted cell line) [µM]
100 to 1000 | < 50 | 50 to 500 | > 1000 | 50 to 500 | – | – | Cc1cncc(NC(=O)C(=O)N2C[C@H](C)CC[C@H]2c2cccs2)c1 (single isomer, unassigned) [Compound 68] | A (an IC50 ratio greater than or equal to 10 fold) | > 10 | – | – | – | –
< 100 | < 50 | 50 to 500 | 100 to 1000 | < 50 | – | – | CCc1cc(NC(=O)C(=O)N2C[C@@H](C)CC[C@@H]2c2ccc3sc(C(F)(F)CN(C)C)nc3c2)cnc1N (relative stereo) [Compound 1280] | A (an IC50 ratio greater than or equal to 10 fold) | – | < 1 | – | – | –
– | < 50 | 50 to 500 | > 1000 | – | < 100 | 50 to 500 | CC(=O)Nc1ccc([C@@H]2CC[C@@H](C)CN2C(=O)C(=O)Nc2cncc(C(N)=O)c2)cc1 (single isomer, unassigned) [Compound 451] | A (an IC50 ratio greater than or equal to 10 fold) | 1 to 10 | – | – | – | –
< 100 | < 50 | 50 to 500 | 100 to 1000 | < 50 | – | – | CCc1cc(NC(=O)C(=O)N2C[C@@H](C)[C@@H](OC)C[C@@H]2c2ccc3scnc3c2)cnc1N (single isomer, unassigned) [Compound 1286] | A (an IC50 ratio greater than or equal to 10 fold) | – | < 1 | – | – | –
– | < 50 | < 50 | < 100 | – | < 100 | < 50 | COc1ncc(NC(=O)C(=O)N2C[C@@H](C)CC[C@@H]2c2ccc3sc([C@H]4CCN(C)C[C@@H]4C)nc3c2)cc1C(N)=O (racemic) [Compound 1168, 2-methoxy-5-[[2-oxo-2-[rac-(2R,5S)-5-methyl-2-[2-[rac-(3R,4S)-1,3-dimethyl-4-piperidyl]-1,3-benzothiazol-5-yl]-1-piperidyl]acetyl]amino]pyridine-3-carboxamide] | – | < 1 | – | – | A (an IC50 ratio greater than or equal to 10 fold) | –
< 100 | < 50 | < 50 | < 100 | < 50 | – | – | CCN1CCC(c2nc3cc([C@H]4CC[C@H](C)CN4C(=O)C(=O)Nc4cnc(N)c(C)c4)ccc3s2)CC1 [Compound 1335, N-(6-amino-5-methylpyridin-3-yl)-2-((2R,5S)-2-(2-(1-ethylpiperidin-4-yl)benzo[d]thiazol-5-yl)-5-methylpiperidin-1-yl)-2-oxoacetamide] | A (an IC50 ratio greater than or equal to 10 fold) | – | < 1 | – | – | –
< 100 | < 50 | 50 to 500 | > 1000 | 50 to 500 | – | – | Cc1cc(NC(=O)C(=O)N2C[C@@H]3CC[C@@H](C3)[C@H]2c2ccccc2)cnc1N (single isomer, unassigned) [Compound 64] | A (an IC50 ratio greater than or equal to 10 fold) | > 10 | – | – | – | –
100 to 1000 | < 50 | 50 to 500 | > 1000 | – | – | < 50 | CC(C)c1cc(NC(=O)C(=O)N2C[C@@H](C)CC[C@@H]2c2ccc(F)cc2)cnc1N [Compound 993, N-(6-amino-5-isopropyl-3-pyridyl)-2-[(2R,5S)-2-(4-fluorophenyl)-5-methyl-1-piperidyl]-2-oxo-acetamide] | A (an IC50 ratio greater than or equal to 10 fold) | 1 to 10 | – | – | – | –
< 100 | < 50 | 50 to 500 | 100 to 1000 | < 50 | – | – | CCc1cc(NC(=O)C(=O)N2C[C@@H](C)CC[C@@H]2c2ccc3sc(C4CCCN4C)nc3c2)cnc1N (stereo partly drawn) [Compound 1282, N-(6-amino-5-ethylpyridin-3-yl)-2-((2R,5S)-5-methyl-2-(2-(1-methylpyrrolidin-2-yl)benzo[d]thiazol-5-yl)piperidin-1-yl)-2-oxoacetamide] | A (an IC50 ratio greater than or equal to 10 fold) | – | < 1 | – | – | –

From patent US11999727B2 (Tango Therapeutics, Inc., priority 2020, dated 2024)
